molecular target: Runt-related transcription factor 1 (Homo sapiens, UniProt Q01196); assay: disruptors of Runt domain/CBFb-SMMHC interaction – biochemical, FRET, Cerulean-Runt, Venus-CBFb-SMMHC, uHTS, primary screen (AID 1434); conditions: pH 7.4; 23 °C
Sequence (Q01196 whole entry, the tested form may be a part): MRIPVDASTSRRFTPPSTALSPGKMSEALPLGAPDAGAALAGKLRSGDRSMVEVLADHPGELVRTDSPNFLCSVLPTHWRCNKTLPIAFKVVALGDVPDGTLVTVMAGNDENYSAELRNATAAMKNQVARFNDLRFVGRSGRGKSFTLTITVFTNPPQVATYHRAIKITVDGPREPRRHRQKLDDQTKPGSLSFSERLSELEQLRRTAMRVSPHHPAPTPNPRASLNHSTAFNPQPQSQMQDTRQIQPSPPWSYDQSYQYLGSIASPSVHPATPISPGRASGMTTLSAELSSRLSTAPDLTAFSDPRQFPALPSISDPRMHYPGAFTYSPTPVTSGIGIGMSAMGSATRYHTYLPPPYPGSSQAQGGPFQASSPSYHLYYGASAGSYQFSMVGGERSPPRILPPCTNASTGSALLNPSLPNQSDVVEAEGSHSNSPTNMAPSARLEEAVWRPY

Row | IC50 [µM] | Compound
1 | 100 | CN1c2ccsc2C(=O)C(C(=S)Nc2ccc(F)c(Cl)c2)S1(=O)=O (stereo not drawn)
2 | 10.1 | Cc1ccc(C)c(-c2csc(N=NC(C)c3cc4c(ccc5ccccc54)oc3=O)n2)c1 (stereo not drawn) [MLS000559785]
3 | 100 | Cc1cc2c(c(=O)n1CCc1ccccc1)C(c1ccco1)C(C#N)C(=N)O2 (stereo not drawn) [SMR000149533]

Reference: BindingDB's records for doi:10.7270/Q2DV1H7P (Burnham Center For Chemical Genomics, 2009)
